Reference: patent publication US20060263895A1, “Method for monitoring the stereoselectivity and relative rate of organic chemical reactions” (priority 2005, published 2006)

Legend:
[1] = Double cuvette-ISES (in situ enzymatic screening) of Co(III)-salen mediated HKR of (±)-propylene oxide
Procedure, shortened: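 Co(III)-salen catalysts (0.25 mol %) in CHCl3 with (±)-propylene oxide (7.2 M in organic layer), overlaid with aqueous reporting layers in 50 mM sodium pyrophosphate, final pH 8.6. Reporters: 0.35 U HLADH/7.2 mM NAD+ ((S)-diol) or 0.35 U TBADH/2.2 mM NADP+ ((R)-diol). A340 increase gives enantioselectivity and relative rate estimates.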

[2] = HKR of (±)-propylene oxide under standard neat 'Jacobsen conditions' (NMR conversion, chiral HPLC ee); details: for % ee (HPLC) / NMR conv. (time): loading 0.25 mol %; for % ee (HPLC) / % ee of the 1,2-propanediol product, as observed by chiral HPLC (lower number): + = (S), − = (R); for % ee of the 1,2-propanediol product, as observed by chiral HPLC (lower number): neat propylene oxide, 0.55 equiv. H2O, 0.25 mol % catalyst, 3 h reaction time; for NMR conv. (time): 3 h
Procedure, shortened: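 Co(III)-salen catalyst (0.25 mol %) with neat (±)-propylene oxide and water (0.55 equiv.), added at 0° C., then stirred at room temperature, usually 3 h (longer if <5% conversion). Conversion by 1H NMR; diol isolated, derivatized to bis(p-bromobenzoate), ee by chiral HPLC.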

[3] = HKR of (±)-hexene oxide under neat conditions; details: in 30 min, 2.0 mol % catalyst, 25° C.
Protocol: Co(III)-salen (acetate) catalysts were evaluated for HKR of (±)-hexene oxide, under neat conditions, similar to those described by Jacobsen and co-workers (Schaus, S. E.; Brandes, B. D.; Larrow, J. F.; Tokunaga, M.; Hansen, K. B.; Gould, A. E.; Furrow, M. E.; Jacobsen, E. N. J. Am. Chem. Soc. 2002, 124, 1307-1315). Reactions were stopped after 0.5 h, to obtain the enantiopurity of the 1,2-hexenediol produced at relatively early reaction times, for comparison with biphasic ISES predictions.
A typical procedure follows: To the Co(III)-salen catalyst derived from 1e (16.6 mg, 23.2 μmol, 2.0 mol %) at rt was added (±)-hexene oxide (116 mg, 1.16 mmols). The mixture was cooled to 0° C. Then water (11.4 μL, 0.64 mmols, 0.55 equiv.) was added and the flask was capped tightly and stirred 25° C. for 30 min. The progress of the reaction was estimated by ^1H NMR, the reaction mixture was cooled to 0° C., an aliquot was then withdrawn and dissolved in CDCl3 at 0° C. bath. After distilling over the unreacted epoxide, the diol product was collected, and then itself distilled again by Kugelrohr. When the reaction conversion was more than 50% in 30 min, 15 min reaction time was used (for catalyst 1e) to get the product diol.
To determine ee, the isolated diol was derivatized using p-bromobenzoyl imidazole (2.2 equiv.) in THF in the presence of NaH (4 equiv.) at rt for 5 min. […]

[4] = Catalyst performance in the ISES cuvette (biphasic HKR), ee of isolated diol by chiral HPLC; details: diol isolated from merged ISES cuvettes
Protocol: For several catalysts, control experiments were run to assess whether running the HKR under biphasic conditions influences the enantioselectivity of these Co(III)-salen HKR catalysts. In such cases, parallel duplicate ‘double-cuvette’ runs were chosen (i.e. two HLADH cuvettes and two TBADH cuvettes for a single catalyst). Following the ISES runs, the contents of all four reporting cuvettes were merged. Unreacted epoxide was rapidly removed under Ar stream. Following dilution with CH2Cl2 (˜50 mL), sodium sulfate was added to adsorb remaining water. The resulting organic solution was filtered and the filter cake washed with CH2Cl2 (2×20 mL). Following evaporation of the solvent, the crude diols were derivatized directly with p-bromobenzoyl imidazole to yield the 1,2-propanediol bis(pbromobenzoate) esters, which were then purified by silica gel chromatography to estimate diol yields. Enantiomeric excesses were determined using chiral HPLC, as before. […] Indeed, the ee's seen from diol isolated directly out of the cuvette generally appear slightly higher than those obtained under ‘Jacobsen conditions,’ probably reflecting the shorter reaction times employed in the ISES experiment.

[5] = [total 1,2-propanediol] in aqueous ISES layer by 1H NMR
Protocol: The concentration of 1,2-propanediol in the aqueous layer was estimated under typical ISES conditions using 1H NMR spectroscopy. The bilayer was prepared as usual for double cuvette-ISES (Section V), but for the substitution of D2O for H2O in the buffer, and the elimination of the dehydrogenase enzymes. After 15 min, the aqueous layer (300 μL of 500 μL total) was withdrawn and mixed with a fresh solution of imidazole of known concentration (also 300 μL in D2O), as an internal concentration standard. Accumulation of the 1H NMR spectrum, followed by integration and quantitation, provided an experimental measure of [total diol] in the aqueous reporting layer at t=15 minutes for the catalyst under investigation. The observed diol concentrations for ten catalysts examined in this way are collected in Table S6, below. These have been normalized to the value for the catalyst derived from salen 3b (arbitrarily assigned a rate of 1.0).

[6] = target: T1, Lactobacillus kefir alcohol dehydrogenase (LKADH) (Lentilactobacillus kefiri, UniProt Q6WVP7); assay: LKADH oxidation of 1,2-hexenediol; type: biochemical
T1 sequence (Q6WVP7 1-252): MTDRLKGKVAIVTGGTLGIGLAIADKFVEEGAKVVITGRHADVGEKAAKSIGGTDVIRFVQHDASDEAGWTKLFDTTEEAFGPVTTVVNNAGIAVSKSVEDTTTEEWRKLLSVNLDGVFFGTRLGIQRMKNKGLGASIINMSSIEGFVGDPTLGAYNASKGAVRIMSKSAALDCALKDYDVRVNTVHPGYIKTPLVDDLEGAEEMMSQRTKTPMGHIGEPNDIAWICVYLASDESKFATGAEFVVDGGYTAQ
Text: (§1) The following examples illustrate the invention with respect to an in situ enzymatic screening (ISES) method to predict the enantioselectivity of chiral catalysts for the hydrolytic kinetic resolution (HKR) of (±) hexene oxide. Above, it was shown that the method of the invention may be employed to predict the enantioselectivity and relative rate of a catalyst library for HKR of (±)-propylene oxide using horse liver alcohol dehydrogenase (HLADH) and Thermoalaerobium brockii alcohol dehydrogenase (TBADH).

[7] = target: T2, HLADH (Equus caballus, UniProt P00327); assay: HLADH oxidation of 1,2-hexenediol; type: biochemical, horse
T2 construct: purchased; host or cells: equine liver
T2 sequence (P00327 whole entry): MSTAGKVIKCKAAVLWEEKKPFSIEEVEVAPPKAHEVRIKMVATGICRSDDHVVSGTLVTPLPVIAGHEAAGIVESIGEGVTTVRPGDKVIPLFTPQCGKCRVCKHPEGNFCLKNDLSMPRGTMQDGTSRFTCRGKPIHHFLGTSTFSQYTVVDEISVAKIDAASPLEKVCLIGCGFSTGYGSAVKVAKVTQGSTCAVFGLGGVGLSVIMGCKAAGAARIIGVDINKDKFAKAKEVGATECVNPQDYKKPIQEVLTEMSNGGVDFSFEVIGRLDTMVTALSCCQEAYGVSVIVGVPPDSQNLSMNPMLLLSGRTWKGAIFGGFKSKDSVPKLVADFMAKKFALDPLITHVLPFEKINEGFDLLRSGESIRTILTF
Text: as §1

[8] = target: T3, alcohol dehydrogenase from Thermoanaerobium brockii (TBADH) (Thermoanaerobacter brockii, UniProt P14941); details: read-out: reported Km value for NADP+ with TBADH; cited from earlier work
T3 construct: purchased
T3 sequence (P14941 1-352): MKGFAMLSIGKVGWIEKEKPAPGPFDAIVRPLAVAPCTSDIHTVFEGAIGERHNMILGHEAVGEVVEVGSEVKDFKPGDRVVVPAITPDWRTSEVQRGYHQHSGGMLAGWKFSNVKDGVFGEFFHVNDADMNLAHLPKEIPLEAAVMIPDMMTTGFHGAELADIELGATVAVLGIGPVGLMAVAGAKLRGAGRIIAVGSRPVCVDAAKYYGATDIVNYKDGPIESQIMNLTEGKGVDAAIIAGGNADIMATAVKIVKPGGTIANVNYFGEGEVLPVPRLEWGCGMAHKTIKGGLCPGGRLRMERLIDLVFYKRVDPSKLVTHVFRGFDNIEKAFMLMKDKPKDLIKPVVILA

[9] = reaction stopped at the time given (mostly 3 h)
[10] = bilayer of pH 8.6 buffer over 7.2 M epoxide in CHCl3, 0.25 mol % catalyst, 15-35 min, + = (S), − = (R)

Compound | % ee (HPLC) [2, 9] | % ee of the 1,2-propanediol product, as observed by chiral HPLC (lower number) [2] | % ee predicted double cuvet-ISES ([1]; bilayer) | % ee of the 1,2-propanediol product, as predicted by double-cuvette ISES (upper number) [1, 10] | NMR conv. (time) [2] | % ee measured neat 'Jacobsen conditions' [2] | % ee measured biphasic conds. [4] | other results
N,N′-Bis(3′,5′-diiodosalicylidene)-[1R-(1α,2α,5α)]-2-amino-7,7-dimethyl-2-bicyclo[3.3.1]heptaneethanamine [Salen 1e] | +28 (S) % ee | +28 % ee |  |  |  |  |  | % ee of the 1,2-propanediol product, as predicted by double-cuvette ISES (upper number) ([1]; catalyst tested at 0.05 mol %, bilayer): +47 % ee; reaction conversion [3]: more than 50%
N,N′-Bis(3′,5′-di-tert-butylsalicylidene[1R-(1α,2α,5α)]-2-amino-7,7-dimethyl-2-bicyclo[3.3.1]heptane-ethanamine [Salen 1a] | +72 (S) % ee | +72 % ee | 56 % ee | +56 % ee | 12 (3 h) % | 72 % ee | 87 % ee | [diol] (mM) @ 15 min ([5]; aqueous ISES layer, 1H NMR, t = 15 min): 19 mM; Norm. ([5]; normalized to the catalyst derived from salen 3b (rate 1.0)): 0.20
CCCCC(O)CO (stereo not drawn) |  |  |  |  |  |  |  | selectivity of LKADH for the oxidation of 1,2-hexenediol [6]: high (S)-selectivity; selectivity of HLADH for the oxidation of 1,2-hexenediol [7]: modest (S)-selectivity
CO[C@H]1[C@@H]2OC(C)(C)O[C@@H]2COC1(CN=Cc1cc(C(C)(C)C)cc(C(C)(C)C)c1O)N=Cc1cc(C(C)(C)C)cc(C(C)(C)C)c1O (stereo partly drawn) [Salen 7a, N,N′-Bis(3′,5′-di-tert-butylsalicylidene)-3-O-methyl-4,5-O-isopropylidene-1,2-dideoxy-Dfructopyranosyl-1,2-diamine] |  |  | −33 % ee |  |  | −59 % ee | −55 % ee | % ee of the 1,2-propanediol product, as predicted by double-cuvette ISES (upper number) ([1]; bilayer of pH 8.6 buffer over 7.2 M epoxide in CHCl3, 0.25 mol % catalyst, 15-35 min, + = (S), − = (R), listed as 7a*): −33 % ee; NMR conv. (time) ([2]; listed as 7a*): 7 (3 h) %; % ee (HPLC) ([2]; reaction stopped at the time printed in the row (mostly 3 h), listed as 7a*): −59 (R) % ee; % ee of the 1,2-propanediol product, as observed by chiral HPLC (lower number) ([2]; listed as 7a*): −59 % ee
CC(C)(C)c1cc(C=NC[C@H](Cc2cccc3ccccc23)N=Cc2cc(C(C)(C)C)cc(C(C)(C)C)c2O)c(O)c(C(C)(C)C)c1 [Salen 4a, N,N′-Bis(3′,5′-di-tert-butylsalicylidene)-(1S)-(α-naphthylmethyl)-1,2-ethylenediamine] | +76 (S) % ee | +76 % ee | 77 % ee | +77 % ee | 35 (3 h) % | 76 % ee | 82 % ee | 
NC(=O)c1ccc[n+]([C@@H]2O[C@H](COP(=O)([O-])OP(=O)(O)OC[C@H]3O[C@@H](n4cnc5c(N)ncnc54)[C@H](OP(=O)(O)O)[C@@H]3O)[C@@H](O)[C@H]2O)c1 [NADP+] |  |  |  |  |  |  |  | Km [8]: 13 µM
